# Legend:
# Korean native steers [1] = test: Body weight and average daily gain according to NALT feeding under heat stress conditions; assay type: in vivo, Korean native cattle
# Procedure: In the present disclosure, 8 Korean native steers (15.9±0.16 months old on average) were selected and used. The experimental procedure and method were approved by the Institutional Animal Care and Use Committee at Konkuk University, Seoul, Republic of Korea (Approval No. KU17136). […] Analysis of chemical composition (moisture, crude protein, crude fat, crude ash, etc.) and amino acids (19 types) of the basal diet stored at −20° C. was performed, and the results are shown in Table 3. After grouping the animals by statistical analysis of initial body weights, the animals were bred in 1.0×1.5 m^2 individual pens during the experiment period. The feed was offered based on an amount of dry matter of daily total mixed ration (TMR) per head. After 7 days of an adaptation period for N-acetyl-L-tryptophan (NALT), a mixture of 0.1% N-acetyl-L-tryptophan (NALT) and the total mixed ration was fed to individual animals every morning at 8 a.m. for 6 weeks, and water was available ad libitum. Total amounts of L-tryptophan ingested by the control and the experimental group (NALT-treated group) by feeding NALT were 6.0 g/day/head and 18.2 g/day/head, respectively. The experiment was performed such that the NALT-treated group ingested 12.2 g/day/head more L-tryptophan than the control. Meanwhile, results of growth performance analysis (body weight and average feed intake) and genetic analysis of loin tissue were obtained by statistically comparing and analyzing significant differences between the control and the NALT-treated group, and results of hematological analysis were obtained via statistical comparison and analysis depending on NALT treatment, experiment period (days), and interaction (treatment×days). These numerical values were expressed as average values, and a significance test was performed at the 5% level using Student's t-test by using a JMP 5.0 software package (SAS Institute Inc., Cary, NC, USA). Temperature (° C.) and relative humidity (%) were recorded every day during a one-week adaptation period and a 6-week experiment period using a portable temperature and humidity meter. Average temperature and average relative humidity of each week were calculated using the temperature and relative humidity recorded during the total experiment period. In addition, a temperature-humidity index (THI) was calculated using temperature and humidity as shown in the following equation, and heat stress state may be diagnosed using the THI as an index feature of a heat load. THI=(1.8×T+32)−[0.55−0.0055×RH)×(1.8×T−26.8) Initial weight (week 0), intermediate weight (week 5), and end weight (week 10) of sentinel animals were measured, i.e., three times in total, before offering morning feed. The average daily gain (ADG) of the sentinel animals was calculated by dividing the differences in weight, between the initial weight and the intermediate weight and between the intermediate weight and the end weight, by the total number of days of the experiment.
# Korean native steers [2] = test: Feed intake and drinking water intake according to NALT feeding under heat stress conditions; assay type: in vivo, Korean native cattle; settings: for Drinking water intake / Feed intake: 0.1% NALT
# Text: After grouping the animals by statistical analysis of initial body weights, the animals were bred in 1.0×1.5 m^2 individual pens during the experiment period. The feed was offered based on an amount of dry matter of daily total mixed ration (TMR) per head. After 7 days of an adaptation period for N-acetyl-L-tryptophan (NALT), a mixture of 0.1% N-acetyl-L-tryptophan (NALT) and the total mixed ration was fed to individual animals every morning at 8 a.m. for 6 weeks, and water was available ad libitum. Total amounts of L-tryptophan ingested by the control and the experimental group (NALT-treated group) by feeding NALT were 6.0 g/day/head and 18.2 g/day/head, respectively. The experiment was performed such that the NALT-treated group ingested 12.2 g/day/head more L-tryptophan than the control.
# Meanwhile, results of growth performance analysis (body weight and average feed intake) and genetic analysis of loin tissue were obtained by statistically comparing and analyzing significant differences between the control and the NALT-treated group, and results of hematological analysis were obtained via statistical comparison and analysis depending on NALT treatment, experiment period (days), and interaction (treatment×days). These numerical values were expressed as average values, and a significance test was performed at the 5% level using Student's t-test by using a JMP 5.0 software package (SAS Institute Inc., Cary, NC, USA).
# Temperature (° C.) and relative humidity (%) were recorded every day during a one-week adaptation period and a 6-week experiment period using a portable temperature and humidity meter. Average temperature and average relative humidity of each week were calculated using the temperature and relative humidity recorded during the total experiment period. In addition, a temperature-humidity index (THI) was calculated using temperature and humidity as shown in the following equation, and heat stress state may be diagnosed using the THI as an index feature of a heat load. THI=(1.8×T+32)−[0.55−0.0055×RH)×(1.8×T−26.8)
# Feed intake of each sentinel animal was calculated by measuring a total amount of feed offered and an amount left over every day, and drinking water intake thereof was calculated every day by measuring a total amount of drinking water offered and an amount left over. Also, since the amount of feed left over was measured in pen units, DMI/BW % was calculated using the equation DMI/BW %=1.2425+1.9218×NEm−0.7259×(NEm)^2 and corrected using actual data of the experiment to calculate data for each of the two heads included in each pen. Analysis results of changes in feed intake and drinking water intake of the control and the NALT-treated group are shown in Table 12. […] Based thereon, it may be interpreted that the feed intake of cattle fed with NALT increased compared with the control without having increased drinking water intake even under heat stress conditions.
smiles,measurement,setting,value
"CC(=O)N[C@@H](Cc1c[nH]c2ccccc12)C(=O)O [NALT, N-acetyl-L-tryptophan]",Body weight,"Korean native steers [1]; heat stress, 0.1% NALT, Week 0 (initial weight)",428.8 kg
same,Body weight,"Korean native steers [1]; heat stress, 0.1% NALT, Week 5",480.8 kg
same,Body weight,"Korean native steers [1]; heat stress, 0.1% NALT, Week 10",510.5 kg
same,ADG,"Korean native steers [1]; heat stress, 0.1% NALT, week 0 to week 5",1.49 kg/day
same,Total ADG,"Korean native steers [1]; heat stress, 0.1% NALT, week 0 to week 10",1.17 kg/day
same,ADG,"Korean native steers [1]; heat stress, 0.1% NALT, week 5 to week 10",0.85 kg/day
same,Average daily gain compared to the control,Korean native steers [1]; period where the THI was over 80 (high heat stress),significantly increased
same,Drinking water intake,Korean native steers [2]; THIavg < 80,35.3 kg
same,Feed intake,Korean native steers [2]; THIavg < 80,13.7 kg
same,Drinking water intake,Korean native steers [2]; THIavg > 80,44.6 kg
same,Feed intake,Korean native steers [2]; THIavg > 80,13.5 kg
same,Feed intake compared to the control,Korean native steers [2]; THI of 80 or more,significantly increased
same,Average feed intake,Korean native steers [2]; entire experiment period,13.62 kg/day
same,Average feed intake compared with the control,Korean native steers [2]; entire experiment period,no statistically significant difference
same,Drinking water intake compared with the control,Korean native steers [2]; regardless of THI conditions,statistically significant decrease

# From patent US12186303B2, “Feed additive for cattle comprising n-acetyl-l-tryptophan as active ingredient” (CJ CHEILJEDANG CORPORATION, priority 2018, dated 2025)
